For series [1], the species on record is Homo sapiens. The experiment in a line: Binding affinity to lysosome sulfatase (unknown origin) assessed as Vmax. The series is classed as subcellular.
Series [2] deals with T98G. The experiment in a line: Cytotoxicity against human T98G cells assessed as reduction in cell viability incubated for 4 hrs by MTT assay. Format: toxicity, cell-based. A general note: Formazan colour is commonly taken as a measure of viable cells.
The species entered for series [3] is Homo sapiens. The experiment in a line: Binding affinity to sulfatase in human liver S9 fraction. Format: subcellular.
Series [4] is filed under the species Homo sapiens. The experiment in a line: Binding affinity to lysosome sulfatase (unknown origin) assessed as Km. Format: subcellular.
Series [5] relates to T98G. The experiment in a line: Binding affinity to sulfatase in human T98G cells assessed as increase in fluorescence intensity at 40 uM by confocal fluorescence microscopic analysis. The series is classed as cell-based.
Series [6] is described as follows: Drug localization in lysosome of human T98G cells by Lyso-Tracker Red based confocal laser scanning microscopy. The series is classed as ADME, cell-based.
Series [7] relates to T98G. The experiment in a line: Binding affinity to sulfatase in human T98G cells assessed as reduction in fluorescence intensity at 125 uM in presence of 2-(2-Morpholinoethyl)-6-(((2S,3R,4S,5S,6R)-3,4,5-trihydroxy-6-(hydroxymethyl)tetrahydro-2H-pyran-2-yl)oxy)-1H-benzo[de]-isoquinoline-1,3(2H)-dione by confocal fluorescence microscopic analysis. The series is classed as cell-based.

Series [8] deals with T98G. The experiment in a line: Cytotoxicity against human T98G cells assessed as reduction in cell viability at 3.5 to 350 uM incubated for 48 hrs by MTT assay relative to control. To be noted: dose 3.5-350 µM. Format: toxicity, cell-based.
The nature of series [9]: Inhibition of lysosome sulfatase (unknown origin) assessed as reduction in fluorescence intensity using 2-(2-Morpholinoethyl)-6-(((2S,3R,4S,5S,6R)-3,4,5-trihydroxy-6-(hydroxymethyl)tetrahydro-2H-pyran-2-yl)oxy)-1H-benzo[de]-isoquinoline-1,3(2H)-dione as substrate incubated for 60 mins by fluorescence based analysis. The series is classed as subcellular, Homo sapiens.

The structures appear in SMILES notation. pIC50: −log10 of the molar value. The source made the active and inactive calls. No cut-off for these calls is given here.

The Vmax is the rate approached at saturating substrate. A word on the Km: it is the substrate concentration at which the rate is half of its maximum. Turning to `O=C1c2cccc3c(O[C@@H]4O[C@H](CO)[C@@H](O)[C@H](O)[C@H]4O)ccc(c23)C(=O)N1CCN1CCOCC1`, the Vmax in the series listed under Homo sapiens [1] turned out to be 70.9 nmol/min/mg. In addition, the Activity entry with T98G [2] is “Non-Toxic”. For the same compound, the outcome in the series filed under Homo sapiens [3] and with T98G [5] was Active. Also, in the series filed under Homo sapiens [4], the Km was 21.6 µM. In addition, the Drug uptake result in series [6] is listed as “Active”.

For orientation: pIC50 means the negative decadic logarithm of the IC50, by convention in mol/L. On to `CC1(C)[C@H](C(=O)O)N2C(=O)C[C@H]2S1(=O)=O` [SULBACTAM], for which the result in the series on T98G [7] was Active. For the same compound, the Activity in the series with T98G [8] came to 34%. Also, the pIC50 in series [9] was 5.46.
